# Tested on: airway hyperresponsiveness (AHR) in mouse model of asthma
# Assay: Airway hyperresponsiveness to methacholine in OVA sensitized and challenged mouse model of asthma
# Type: in vivo, BALB/c mice
# Description: The above protocols described in the present invention can be utilized similarly for the synthesis of numerous analogues of ‘triazine-aryl-bis-indole’ class of novel compounds represented by Formula I. • Scheme V • With reference to FIG. 9, mice were sensitized with ovalbumin (OVA) intraperitonially (i.p.) on days 0, 7 and 14 as shown in scheme V. Sham group mice were sensitized with only alum dissolved in PBS. From day 21 to 30, mice were exposed to aerosol of OVA (3%) inhalation 25 minutes daily in a Plexiglas chamber (20×20×10 cm^3). […]
# Airway responsiveness was measured by barometric plethysmography using whole-body plethysmography (WBP; Buxco, Troy, N.Y.) 12 hours after last saline or ovalbumin challenge. […] Enhanced pause (Penh) to methacholine as measured using barometric plethysmography is a valid indicator of bronchoconstriction in mice and can be used to measure AHR.
# FIG. 3. […] AHR was measured after allergen challenge with increasing concentrations of methacholine and MChPC200 was calculated. […]
# Airway responsiveness was measured by barometric plethysmography using whole-body plethysmography (WBP; Buxco, Troy, N.Y.) 12 hours after last saline or ovalbumin challenge. […]
smiles,measurement,setting,value
"COc1ccc(C(c2[nH]c3ccccc3c2CC(=O)O)c2[nH]c3ccccc3c2CC(=O)O)cc1Oc1nc(NC2CC2)nc(NC2CC2)n1 [Compound 7, 2,2′-[2,2′-3-(4,6-bis-cyclopropylamino)-1,3,5-triazin-2-yl-oxy-4-methoxy-phenyl]-methylene-bis-(1H-indole-3,3-diyl)-diacetic acid]",MChPC200,"OVA/OVA mice, 0.1, 1 and 10 mg/kg orally twice per day, versus OVA/OVA/VEH",significantly attenuated the decrease in MChPC200
same,dose of maximum effect on MChPC200,"OVA/OVA mice, orally twice per day",0.1 mg/kg
